Numbers after ± are expanded uncertainties.
Columns and labels:
[1] = xn = mol fraction of the nth substance listed; conditions: Ring tensiometer
[2] = Ring tensiometer

C[S+](C)[O-] [dimethyl sulfoxide] + CCCO
surface tension liquid-gas [mN/m], [1]
Conditions	288.15 K	298.15 K	308.15 K	318.15 K	328.15 K
x2 = 0.0454	40.3 ± 1.1	39.39 ± 1.1	37.85 ± 1.1	36.89 ± 1.1	36.64 ± 1.1
x2 = 0.1248	36.24 ± 1.1	35.91 ± 1.1	34.14 ± 1.1	33.79 ± 1.1	33.37 ± 1.1
x2 = 0.2498	33.09 ± 1.1	32.37 ± 1.1	31.06 ± 1.1	30.95 ± 1.1	30.07 ± 1.1
x2 = 0.3821	30.1 ± 1.1	29.48 ± 1.1	28.96 ± 1.1	28.33 ± 1.1	27.01 ± 1.1
x2 = 0.4997	28.34 ± 1.1	27.81 ± 1.1	27.06 ± 1.1	26.41 ± 1.1	25.5 ± 1.1
x2 = 0.5959	27.14 ± 1.1	26.34 ± 1.1	25.67 ± 1.1	25.02 ± 1.1	24.15 ± 1.1
x2 = 0.661	26.33 ± 1.1	25.7 ± 1.1	24.6 ± 1.1	24.15 ± 1.1	23.35 ± 1.1
x2 = 0.7081	25.71 ± 1.1	25.17 ± 1.1	24.41 ± 1.1	23.65 ± 1.1	22.77 ± 1
x2 = 0.7437	25.25 ± 1.1	24.74 ± 1.1	23.97 ± 1.1	23.15 ± 1	22.45 ± 1
x2 = 0.8523	24.28 ± 1.1	23.5 ± 1.1	22.89 ± 1	22.34 ± 1	21.64 ± 1
x2 = 0.9519	23.55 ± 1.1	22.58 ± 1	22.13 ± 1	21.5 ± 1	20.28 ± 1

CCCCCCO [hexan-1-ol]
[2]
Conditions	surface tension liquid-gas [mN/m]
288.15 K	25.38 ± 1.1
298.15 K	24.51 ± 1.1
308.15 K	23.86 ± 1.1
318.15 K	23.02 ± 1.1
328.15 K	22.33 ± 1

CCCCCCO [hexan-1-ol] + C[S+](C)[O-]
surface tension liquid-gas [mN/m], [1]
Conditions	288.15 K	298.15 K	308.15 K	318.15 K	328.15 K
x1 = 0.0276	38.76 ± 1.1	37.64 ± 1.1	37.53 ± 1.1	36.73 ± 1.1	35.16 ± 1.1
x1 = 0.0786	34.22 ± 1.1	33.57 ± 1.1	34.04 ± 1.1	33.39 ± 1.1	32.7 ± 1.1
x1 = 0.1661	31.83 ± 1.1	30.74 ± 1.1	30.98 ± 1.1	30.06 ± 1.1	28.96 ± 1.1
x1 = 0.2701	29.83 ± 1.1	29.35 ± 1.1	28.94 ± 1.1	28.16 ± 1.1	27.55 ± 1.1
x1 = 0.3741	28.72 ± 1.1	27.95 ± 1.1	27.68 ± 1.1	26.94 ± 1.1	26.24 ± 1.1
x1 = 0.4687	27.91 ± 1.1	27.29 ± 1.1	26.7 ± 1.1	26.16 ± 1.1	25.36 ± 1.1
x1 = 0.5385	27.47 ± 1.1	26.83 ± 1.1	26.27 ± 1.1	25.57 ± 1.1	25.04 ± 1.1
x1 = 0.5921	26.99 ± 1.1	26.24 ± 1.1	25.85 ± 1.1	25.07 ± 1.1	24.29 ± 1.1
x1 = 0.6345	26.53 ± 1.1	26.06 ± 1.1	25.62 ± 1.1	24.72 ± 1.1	24.02 ± 1.1
x1 = 0.7511	26 ± 1.1	25.85 ± 1.1	25.2 ± 1.1	24.44 ± 1.1	23.84 ± 1.1
x1 = 0.9512	25.48 ± 1.1	25.1 ± 1.1	24.75 ± 1.1	24.14 ± 1.1	23.12 ± 1.1

CCCO [propan-1-ol]
[2]
Conditions	surface tension liquid-gas [mN/m]
288.15 K	23.24 ± 1
298.15 K	22.5 ± 1
308.15 K	21.39 ± 1
318.15 K	20.88 ± 1
328.15 K	20.18 ± 1

Reference: the NIST ThermoML archive (doi:10.1016/j.jct.2013.04.009)
